# Measured values reported in patent US6562849B1, “Amine derivative compounds” (Sankyo Company, Limited, priority 1999, dated 2003).
# Structures can show the parent of a compound that is named as a salt.
# Tested on: KK mice (age 4-5 months) with diabetes
# Assay: Blood sugar lowering effect in KK mice with diabetes
# Assay type: in vivo
# Details: Mus musculus, po, 72 h, powder diet containing 0.01% of the test compound for 3 days, plasma glucose vs control group, groups of 4 mice, read-out: Blood sugar decrease rate (%)
# Text: [Test Example] Blood Sugar Lowering Effect
# Blood samples were collected from the caudal vein of KK mice (age 4-5 months) with diabetes followed by measurement of their blood sugar levels. Next, after assigning the mice to groups (of 4 mice each) so that the mean blood sugar levels of each group were the same, mouse laboratory powder diet (F-1, Funabashi Farms), prepared so as to contain 0.01% of the test compound, was given to the mice for 3 days. The groups of mice that were given test compound were designated as the drug dose groups. It should be noted that a group that was given laboratory diet not containing the test compound was designated as the control group. Blood samples were collected from the caudal vein of the mice 3 days later and the glucose concentration of the plasma obtained by centrifugal separation was measured with a glucose analyzer (Glucoloader, A & T Corp.). The mean decrease of blood sugar rate (%) was determined according to the following equation.
# Blood sugar decrease rate (%)=(mean blood sugar value of control group−mean blood sugar value […] of drug dose group)×100/(blood sugar value of control group)
row,SMILES,inhibition in vivo at 0.01 % in diet
1,"Cn1c(COc2ccc(CC3SC(=O)NC3=O)cc2)nc2ccc(Oc3ccc(NC(=O)c4ccc(F)cc4F)cc3)cc21 (centres unmarked) [Example 57, 2,4-Difluoro-N-[4-[2-[4-(2,4-dioxothiazolidin-5-ylmethyl)phenoxymethyl]-1-methyl-1H-benzimidazol-6-yloxy]phenyl]benzamide]",57.3%
2,"CC(=O)Nc1ccc(Oc2ccc3nc(COc4ccc(CC5SC(=O)NC5=O)cc4)n(C)c3c2)cc1 (centres unmarked) [Example 52, N-[4-[2-[4-(2,4-Dioxothiazolidin-5-ylmethyl)phenoxymethyl]-1-methyl-1H-benzimidazol-6-yloxy]phenyl]acetamide]",58.5%
3,"Cn1c(COc2ccc(CC3SC(=O)NC3=O)cc2)nc2ccc(Oc3ccc(NC(=O)c4ccc5ccccc5c4)cc3)cc21 (centres unmarked) [Example 60, N-[4-[2-[4-(2,4-Dioxothiazolidin-5-ylmethyl)phenoxymethyl]-1-methyl-1H-benzimidazol-6-yloxy]phenyl]naphthalene-2-carboxamide]",49.8%
4,"Cc1cc(Oc2ccc3nc(COc4ccc(CC5SC(=O)NC5=O)cc4)n(C)c3c2)cc(C)c1NC(=S)Nc1ccc(Cl)cc1 (centres unmarked) [Example 2, 1-(4-Chlorophenyl)-3-(4-[2-[4-(2,4-dioxothiazolidin-5-ylmethyl)phenoxymethyl]-1-methyl-1H-benzimidazol-6-yloxy]-2,6-dimethylphenyl)thiourea]",48.9%
5,"Cn1c(COc2ccc(CC3SC(=O)NC3=O)cc2)nc2ccc(Oc3ccc(NC(=S)NCc4ccccc4)cc3)cc21 (centres unmarked) [Example 11, 1-Benzyl-3-(4-[2-[4-(2,4-dioxothiazolidin-5-ylmethyl)phenoxymethyl]-1-methyl-1H-benzimidazol-6-yloxy]phenyl)thiourea]",32.9%
6,"Cn1c(COc2ccc(CC3SC(=O)NC3=O)cc2)nc2ccc(Oc3ccc(CCNC(=O)Cc4cccc(Cl)c4)cc3)cc21 (centres unmarked) [Example 64, 2-(3-Chlorophenyl)-N-[2-[4-[2-[4-(2,4-dioxothiazolidin-5-ylmethyl)phenoxymethyl]-1-methyl-1H-benzimidazol-6-yloxy]phenyl]ethyl]acetamide hydrochloride]",43.5%
7,"Cn1c(COc2ccc(CC3SC(=O)NC3=O)cc2)nc2ccc(Oc3ccc4cccc(NC(=O)NCc5ccccc5)c4c3)cc21 (centres unmarked) [Example 45, 1-Benzyl-3-(7-[2-[4-(2,4-dioxothiazolidin-5-ylmethyl)phenoxymethyl]-1-methyl-1H-benzimidazol-6-yloxy]naphthalen-1-yl)urea]",54.1%
8,"Cn1c(COc2ccc(CC3SC(=O)NC3=O)cc2)nc2ccc(Oc3ccc(NC(=O)Nc4ccccc4)cc3)cc21 (centres unmarked) [Example 4, 1-(4-[2-[4-(2,4-Dioxothiazolidin-5-ylmethyl)phenoxymethyl]-1-methyl-1H-benzimidazol-6-yloxy]phenyl)-3-phenylurea]",48.6%
9,"Cc1cc(Oc2ccc3nc(COc4ccc(CC5SC(=O)NC5=O)cc4)n(C)c3c2)cc(C)c1NC(=O)Nc1ccc([N+](=O)[O-])cc1 (centres unmarked) [Example 3, 1-(4-[2-[4-(2,4-Dioxothiazolidin-5-ylmethyl)phenoxymethyl]-1-methyl-1H-benzimidazol-6-yloxy]-2,6-dimethylphenyl)-3-(4-nitrophenyl)urea]",49.9%
10,"Cn1c(COc2ccc(CC3SC(=O)NC3=O)cc2)nc2ccc(Oc3ccc(NC(=O)C4CCCC4)cc3)cc21 (centres unmarked) [Example 59, N-[4-[2-[4(2,4-dioxothiazolidin-5-ylmethyl)phenoxymethyl]-1-methyl-1H-benzimidazol-6-yloxy]phenyl]cyclopentanecarboxamide]",56.8%
11,"Cn1c(COc2ccc(CC3SC(=O)NC3=O)cc2)nc2ccc(Oc3ccc(NC(=O)c4cccc(Cl)c4)cc3)cc21 (centres unmarked) [Example 54, 3-Chloro-N-[4-[2-[4-(2,4-dioxothiazolidin-5-ylmethyl)phenoxymethyl]-1-methyl-1H-benzimidazol-6-yloxy]phenyl]benzamide]",43.4%
12,"Cn1c(COc2ccc(CC3SC(=O)NC3=O)cc2)nc2ccc(Oc3ccc4cccc(NC(=S)NCc5ccccc5)c4c3)cc21 (centres unmarked) [Example 44, 1-Benzyl-3-(7-[2-[4-(2,4-dioxothiazolidin-5-ylmethyl)phenoxymethyl]-1-methyl-1H-benzimidazol-6-yloxy]naphthalen-1-yl)thiourea]",47.2%
13,"CCCCCCN(C(=O)Nc1ccc(F)cc1)c1ccc(Oc2ccc3nc(COc4ccc(CC5SC(=O)NC5=O)cc4)n(C)c3c2)cc1 (centres unmarked) [Example 16, 1-(4-[2-[4-(2,4-Dioxothiazolidin-5-ylmethyl)phenoxymethyl]-1-methyl-1H-benzimidazol-6-yloxy]phenyl)-1-n-hexyl-3-(4-fluorophenyl)urea]",42.9%
14,"CCNC(=O)Nc1ccc(Oc2ccc3nc(COc4ccc(CC5SC(=O)NC5=O)cc4)n(C)c3c2)cc1 (centres unmarked) [Example 12, 1-(4-[2-[4-(2,4-Dioxothiazolidin-5-ylmethyl)phenoxymethyl]-1-methyl-1H-benzimidazol-6-yloxy]phenyl)-3-ethylurea]",56.1%
15,"CC(C)c1cccc(C(C)C)c1NC(=O)Nc1cccc2ccc(Oc3ccc4nc(COc5ccc(CC6SC(=O)NC6=O)cc5)n(C)c4c3)cc12 (centres unmarked) [Example 40, 1-(2,6-Diisopropylphenyl)-3-[7-[2-[4-(2,4-dioxothiazolidin-5-ylmethyl)phenoxymethyl]-1-methyl-1H-benzimidazol-6yloxy]naphthalen-1-yl)urea]",59.3%
16,"Cn1c(COc2ccc(CC3SC(=O)NC3=O)cc2)nc2ccc(Oc3ccc(NC(=O)c4ccccc4)cc3)cc21 (centres unmarked) [Example 53, N-[4-[2-[4-(2,4-Dioxothiazolidin-5-ylmethyl)phenoxymethyl]-1-methyl-1H-benzimidazol-6-yloxy]phenyl]benzamide]",59.6%
17,"Cn1c(COc2ccc(CC3SC(=O)NC3=O)cc2)nc2ccc(Oc3ccc(NC(=O)Nc4ccc(F)cc4F)cc3)cc21 (centres unmarked) [Example 5, 1-(2,4-Difluorophenyl)-3-(4-[2-[4-(2,4-dioxothiazolidin-5-ylmethyl)phenoxymethyl]-1-methyl-1H-benzimidazol-6-yloxy]phenyl)urea]",36.2%
18,"Cn1c(COc2ccc(CC3SC(=O)NC3=O)cc2)nc2ccc(Oc3ccc(NC(=O)c4ccncc4)cc3)cc21 (centres unmarked) [Example 55, N-[4-[2-[4-(2,4-Dioxothiazolidin-5-ylmethyl)phenoxymethyl]-1-methyl-1H-benzimidazol-6-yloxy]phenyl]isonicotinamide]",53.8%
19,"Cn1c(COc2ccc(CC3SC(=O)NC3=O)cc2)nc2ccc(Oc3ccc(CCNC(=O)Nc4ccc(F)cc4F)cc3)cc21 (centres unmarked) [Example 31, 1-(2,4-Difluorophenyl)-3-[2-(4-[2-[4-(2,4-dioxothiazolidin-5-ylmethyl)phenoxymethyl]-1-methyl-1H-benzimidazol-6-yloxy]phenyl)ethyl]urea]",50.5%
20,"Cn1c(COc2ccc(CC3SC(=O)NC3=O)cc2)nc2ccc(Oc3ccc(NC(=O)c4cccnc4)cc3)cc21 (centres unmarked) [Example 56, N-[4-[2-[4-(2,4-Dioxothiazolidin-5-ylmethyl)phenoxymethyl]-1-methyl-1H-benzimidazol-6-yloxy]phenyl]nicotinamide]",63.6%
21,"Cn1c(COc2ccc(CC3SC(=O)NC3=O)cc2)nc2ccc(Oc3ccc(CCNC(=O)NC45CC6CC(CC(C6)C4)C5)cc3)cc21 (centres unmarked) [Example 33, 1-(Adamant-1-yl)-3-[2-(4-[2-[4-(2,4-dioxothiazolidin-5-ylmethyl)phenoxymethyl]-1-methyl-1H-benzimidazol-6-yloxy]phenyl)ethyl]urea dihydrochloride]",30.4%
22,"Cn1c(COc2ccc(CC3SC(=O)NC3=O)cc2)nc2ccc(Oc3ccc(CCNC(=O)c4cccnc4)cc3)cc21 (centres unmarked) [Example 63, N-[2-[4-[2-[4-(2,4-Dioxothiazolidin-5-ylmethyl)phenoxymethyl]-1-methyl-1H-benzimidazol-6-yloxy]phenyl]ethyl]nicotinamide dihydrochloride]",55.7%
23,"Cn1c(COc2ccc(CC3SC(=O)NC3=O)cc2)nc2ccc(Oc3ccc(CCNC(=O)Nc4ccc(C(F)(F)F)cc4)cc3)cc21 (centres unmarked) [Example 34, 1-[2-(4-[2-[4-(2,4-Dioxothiazolidin-5-ylmethyl)phenoxymethyl]-1-methyl-1H-benzimidazol-6-yloxy]phenyl)ethyl]-3-[4-(trifluoromethyl)phenyl]urea hydrochloride]",32.8%
24,"CCCCCCN(C(C)=O)c1ccc(Oc2ccc3nc(COc4ccc(CC5SC(=O)NC5=O)cc4)n(C)c3c2)cc1 (centres unmarked) [Example 61, N-[4-[2-[4-(2,4-Dioxothiazolidin-5-ylmethyl)phenoxymethyl]-1-methyl-1H-benzimidazol-6-yloxy]phenyl]-N-n-hexylacetamide hydrochloride]",54.2%
25,"Cn1c(COc2ccc(CC3SC(=O)NC3=O)cc2)nc2ccc(Oc3ccc(NC(=O)NC45CC6CC(CC(C6)C4)C5)cc3)cc21 (centres unmarked) [Example 14, 1-(Adamant-1-yl)-3-(4-[2-[4-(2,4-dioxothiazolidin-5-ylmethyl)phenoxymethyl]-1-methyl-1H-benzimidazol-6-yloxy]phenyl)urea]",63.2%
26,"Cn1c(COc2ccc(CC3SC(=O)NC3=O)cc2)nc2ccc(OCCc3ccc(NC(=O)Nc4ccc(C(F)(F)F)cc4)cc3)cc21 (centres unmarked) [Example 37, 1-[4-(2-[2-[4-(2,4-Dioxothiazolidin-5-ylmethyl)phenoxymethyl]-1-methyl-1H-benzimidazol-6-yloxy]ethyl)phenyl]-3-[4-(trifluoromethyl)phenyl]urea]",35.2%
